Data taken from patent US10588317B2, “Isoxazoline-substituted benzamides and analogues as insecticides” (priority 2015, dated 2020).
Read-outs that look alike come from different tables or passages of the source.

Columns and labels:
Format in all cases: in vivo
Diabrotica balteata = Diabrotica balteata (corn root worm), sprayed maize sprouts; conditions: 96 h, read-out: effect in at least one of the two categories (mortality or growth inhibition); for percent effect (mortality or growth inhibition) at 200 ppm: application rate 200 ppm, L2 larvae, 4 days after infestation
How it was run: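 Maize sprouts on agar sprayed with aqueous dilutions of DMSO stocks, dried, then infested with L2 larvae (6–10 per well). Mortality and growth inhibition scored against untreated controls 4 days after infestation, at 200 ppm application rate.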

Euschistus heros = Euschistus heros (neotropical brown stink bug), sprayed soybean leaves; conditions: 120 h, read-out: effect in at least one of the two categories (mortality or growth inhibition); for percent effect (mortality or growth inhibition) at 200 ppm: application rate 200 ppm, N2 nymphs, 5 days after infestation
How it was run: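 Soybean leaves on agar sprayed with aqueous dilutions of DMSO stocks, dried, then infested with N2 nymphs. Mortality and growth inhibition scored against untreated samples 5 days after infestation; application rate 200 ppm.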

Myzus persicae = Myzus persicae (green peach aphid): feeding/contact activity; conditions: 144 h
Description: (§1) Sunflower leaf discs were placed onto agar in a 24-well microtiter plate and sprayed with aqueous test solutions prepared from 10'000 ppm DMSO stock solutions. After drying, the leaf discs were infested with an aphid population of mixed ages. The samples were assessed for mortality 6 days after infestation.

Plutella xylostella = Plutella xylostella (diamond back moth), artificial diet; conditions: 120 h, read-out: effect in at least one of the two categories (mortality or growth inhibition); for percent effect (mortality or growth inhibition) at 200 ppm: application rate 200 ppm, L2 larvae, 5 days after infestation
How it was run: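 Artificial diet in 24-well plates treated with aqueous test solutions made from 10'000 ppm DMSO stocks, dried, then infested with L2 larvae (10 to 15 per well). Mortality and growth inhibition scored against untreated samples 5 days after infestation; activity cut-off at least 80% in either category at 200 ppm.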

Spodoptera littoralis = Spodoptera littoralis (Egyptian cotton leaf worm), sprayed cotton leaf discs; conditions: foliar, 72 h, read-out: control (mortality, anti-feeding effect, growth inhibition)
How it was run: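 Cotton leaf discs on agar sprayed with aqueous test solutions made from 10'000 ppm DMSO stock; after drying, infested with five L1 larvae. Mortality, anti-feeding and growth inhibition scored versus untreated samples 3 days after infestation; control counted when any category exceeds untreated.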

Tetranychus urticae = Tetranychus urticae (two-spotted spider mite): feeding/contact activity; conditions: 192 h
Description: Bean leaf discs on agar in 24-well microtiter plates were sprayed with aqueous test solutions prepared from 10'000 ppm DMSO stock solutions. After drying the leaf discs were infested with a mite population of mixed ages. The samples were assessed for mortality on mixed population (mobile stages) 8 days after infestation.

Thrips tabaci = Thrips tabaci (onion thrips): feeding/contact activity; conditions: 144 h
Description: as §1, with “on” for “onto”, “in” for “in a”, “plates” for “plate”, “drying” for “drying,”, “a Thrips” for “an aphid”

[1] = application rate 200 ppm, aphid population of mixed ages, 6 days after infestation, read-out: mortality
[2] = application rate 200 ppm, L1 larvae, 3 days after infestation
[3] = application rate 200 ppm, mixed population (mobile stages), 8 days after infestation, read-out: mortality
[4] = application rate 200 ppm, Thrips population of mixed ages, 6 days after infestation, read-out: mortality

Cc1cc(C2=NO[C@@](c3cc(Cl)c(F)c(Cl)c3)(C(F)(F)F)C2)ccc1C(=O)N[C@H]1CON(S(=O)(=O)NCC(F)(F)F)C1 [Compound A149, 4-[(5S)-5-(3,5-dichloro-4-fluoro-phenyl)-5-(trifluoromethyl)-4H-isoxazol-3-yl]-2-methyl-N-[(4R)-2-(2,2,2-trifluoroethylsulfamoyl)isoxazolidin-4-yl]benzamide]
≥ 80%: percent effect (mortality or growth inhibition) at 200 ppm (Diabrotica balteata) | percent effect (mortality or growth inhibition) at 200 ppm (Euschistus heros) | mortality at 200 ppm (Myzus persicae; [1]) | percent effect (mortality or growth inhibition) at 200 ppm (Plutella xylostella) | mortality at 200 ppm (Spodoptera littoralis; [2]) | mortality at 200 ppm (Tetranychus urticae; [3]) | mortality at 200 ppm (Thrips tabaci; [4])

Cc1cc(C2=NO[C@](c3cc(Cl)cc(C(F)(F)F)c3)(C(F)(F)F)C2)ccc1C(=O)N[C@H]1CON(S(=O)(=O)F)C1 [Compound A219]
≥ 80%: percent control (mortality or growth inhibition) at 200 ppm (Diabrotica balteata) | percent control (mortality or growth inhibition) at 200 ppm (Euschistus heros) | mortality at 200 ppm (Myzus persicae) | percent control (mortality or growth inhibition) at 200 ppm (Plutella xylostella) | mortality at 200 ppm (Spodoptera littoralis) | mortality at 200 ppm (Tetranychus urticae) | mortality at 200 ppm (Thrips tabaci)

Cc1cc(C2=NO[C@@](c3cc(Cl)c(Cl)c(Cl)c3)(C(F)(F)F)C2)ccc1C(=O)NC1CON(S(=O)(=O)N(C)CC2CO2)C1 (stereo partly drawn) [Compound A83, 2-methyl-N-[2-[methyl(oxiran-2-ylmethyl)sulfamoyl]isoxazolidin-4-yl]-4-[(5S)-5-(3,4,5-trichlorophenyl)-5-(trifluoromethyl)-4H-isoxazol-3-yl]benzamide]
≥ 80%: percent effect (mortality or growth inhibition) at 200 ppm (Diabrotica balteata) | percent effect (mortality or growth inhibition) at 200 ppm (Euschistus heros) | mortality at 200 ppm (Myzus persicae; [1]) | percent effect (mortality or growth inhibition) at 200 ppm (Plutella xylostella) | mortality at 200 ppm (Spodoptera littoralis; [2]) | mortality at 200 ppm (Tetranychus urticae; [3]) | mortality at 200 ppm (Thrips tabaci; [4])

Cc1cc(C2=NO[C@](c3cc(Cl)c(Cl)c(Cl)c3)(C(F)(F)F)C2)ccc1C(=O)N[C@H]1CON(S(=O)(=O)CCl)C1 [Compound A220, N-[(4R)-2-(chloromethylsulfonyl)-1,2-oxazolidin-4-yl]-2-methyl-4-[(5R)-5-(3,4,5-trichlorophenyl)-5-(trifluoromethyl)-4H-1,2-oxazol-3-yl]benzamide]
≥ 80%: percent effect (mortality or growth inhibition) at 200 ppm (Diabrotica balteata) | percent effect (mortality or growth inhibition) at 200 ppm (Euschistus heros) | mortality at 200 ppm (Myzus persicae; [1]) | percent effect (mortality or growth inhibition) at 200 ppm (Plutella xylostella) | mortality at 200 ppm (Spodoptera littoralis; [2]) | mortality at 200 ppm (Tetranychus urticae; [3]) | mortality at 200 ppm (Thrips tabaci; [4])

CNS(=O)(=O)N1C[C@@H](NC(=O)c2ccc(C3=NO[C@](c4cc(Cl)c(C(F)F)c(Cl)c4)(C(F)(F)F)C3)cc2C)CO1 [Compound A206, 4-[(5R)-5-[3,5-dichloro-4-(difluoromethyl)phenyl]-5-(trifluoromethyl)-4H-1,2-oxazol-3-yl]-2-methyl-N-[(4R)-2-(methylsulfamoyl)-1,2-oxazolidin-4-yl]benzamide]
≥ 80%: percent effect (mortality or growth inhibition) at 200 ppm (Diabrotica balteata) | percent effect (mortality or growth inhibition) at 200 ppm (Euschistus heros) | mortality at 200 ppm (Myzus persicae; [1]) | percent effect (mortality or growth inhibition) at 200 ppm (Plutella xylostella) | mortality at 200 ppm (Spodoptera littoralis; [2]) | mortality at 200 ppm (Tetranychus urticae; [3]) | mortality at 200 ppm (Thrips tabaci; [4])

Cc1cc(C2=NO[C@@](c3cc(Cl)c(Cl)c(Cl)c3)(C(F)(F)F)C2)ccc1C(=O)NC1CON(S(=O)(=O)NC(C)C)C1 (stereo partly drawn) [Compound A101, N-[2-(isopropylsulfamoyl)isoxazolidin-4-yl]-2-methyl-4-[(5S)-5-(3,4,5-trichlorophenyl)-5-(trifluoromethyl)-4H-isoxazol-3-yl]benzamide]
≥ 80%: percent effect (mortality or growth inhibition) at 200 ppm (Diabrotica balteata) | percent effect (mortality or growth inhibition) at 200 ppm (Euschistus heros) | mortality at 200 ppm (Myzus persicae; [1]) | percent effect (mortality or growth inhibition) at 200 ppm (Plutella xylostella) | mortality at 200 ppm (Spodoptera littoralis; [2]) | mortality at 200 ppm (Tetranychus urticae; [3]) | mortality at 200 ppm (Thrips tabaci; [4])

Cc1cc(C2=NO[C@@](c3cc(Cl)c(Cl)c(Cl)c3)(C(F)(F)F)C2)ccc1C(=O)NC1CON(S(=O)(=O)N(C)C(C)C)C1 (stereo partly drawn) [Compound A103, N-[2-[isopropyl(methyl)sulfamoyl]isoxazolidin-4-yl]-2-methyl-4-[(5S)-5-(3,4,5-trichlorophenyl)-5-(trifluoromethyl)-4H-isoxazol-3-yl]benzamide]
≥ 80%: percent effect (mortality or growth inhibition) at 200 ppm (Diabrotica balteata) | percent effect (mortality or growth inhibition) at 200 ppm (Euschistus heros) | mortality at 200 ppm (Myzus persicae; [1]) | percent effect (mortality or growth inhibition) at 200 ppm (Plutella xylostella) | mortality at 200 ppm (Spodoptera littoralis; [2]) | mortality at 200 ppm (Tetranychus urticae; [3]) | mortality at 200 ppm (Thrips tabaci; [4])

CCCN(C)S(=O)(=O)N1CC(NC(=O)c2ccc(C3=NO[C@@](c4cc(Cl)c(Cl)c(Cl)c4)(C(F)(F)F)C3)cc2C)CO1 (stereo partly drawn) [Compound A84, 2-methyl-N-[2-[methyl(propyl)sulfamoyl]isoxazolidin-4-yl]-4-[(5S)-5-(3,4,5-trichlorophenyl)-5-(trifluoromethyl)-4H-isoxazol-3-yl]benzamide]
≥ 80%: percent effect (mortality or growth inhibition) at 200 ppm (Diabrotica balteata) | percent effect (mortality or growth inhibition) at 200 ppm (Euschistus heros) | mortality at 200 ppm (Myzus persicae; [1]) | percent effect (mortality or growth inhibition) at 200 ppm (Plutella xylostella) | mortality at 200 ppm (Spodoptera littoralis; [2]) | mortality at 200 ppm (Tetranychus urticae; [3]) | mortality at 200 ppm (Thrips tabaci; [4])

Cc1cc(C2=NO[C@@](c3cc(Cl)c(F)c(Cl)c3)(C(F)(F)F)C2)ccc1C(=O)N[C@H]1CON(S(=O)(=O)N(C)CC(F)(F)F)C1 [Compound A150, 4-[(5S)-5-(3,5-dichloro-4-fluoro-phenyl)-5-(trifluoromethyl)-4H-isoxazol-3-yl]-2-methyl-N-[(4R)-2-[methyl(2,2,2-trifluoroethyl)sulfamoyl]isoxazolidin-4-yl]benzamide]
≥ 80%: percent effect (mortality or growth inhibition) at 200 ppm (Diabrotica balteata) | percent effect (mortality or growth inhibition) at 200 ppm (Euschistus heros) | mortality at 200 ppm (Myzus persicae; [1]) | percent effect (mortality or growth inhibition) at 200 ppm (Plutella xylostella) | mortality at 200 ppm (Spodoptera littoralis; [2]) | mortality at 200 ppm (Tetranychus urticae; [3]) | mortality at 200 ppm (Thrips tabaci; [4])

Cc1cc(C2=NO[C@](c3cc(Cl)c(F)c(Cl)c3)(C(F)(F)F)C2)ccc1C(=O)N[C@H]1CON(S(=O)(=O)NC2(C#N)CC2)C1 [Compound A168]
≥ 80%: percent effect (mortality or growth inhibition) at 200 ppm (Diabrotica balteata) | percent effect (mortality or growth inhibition) at 200 ppm (Euschistus heros) | mortality at 200 ppm (Myzus persicae; [1]) | percent effect (mortality or growth inhibition) at 200 ppm (Plutella xylostella) | mortality at 200 ppm (Spodoptera littoralis; [2]) | mortality at 200 ppm (Tetranychus urticae; [3]) | mortality at 200 ppm (Thrips tabaci; [4])

Cc1cc(C2=NO[C@](c3ccc(F)c(C(F)(F)F)c3)(C(F)(F)F)C2)ccc1C(=O)N[C@@H]1CON(S(=O)(=O)N(C)C)C1 [Compound A184]
≥ 80%: percent effect (mortality or growth inhibition) at 200 ppm (Diabrotica balteata) | percent effect (mortality or growth inhibition) at 200 ppm (Euschistus heros) | mortality at 200 ppm (Myzus persicae; [1]) | percent effect (mortality or growth inhibition) at 200 ppm (Plutella xylostella) | mortality at 200 ppm (Spodoptera littoralis; [2]) | mortality at 200 ppm (Tetranychus urticae; [3]) | mortality at 200 ppm (Thrips tabaci; [4])

Cc1cc(C2=NO[C@](c3cc(Cl)cc(C(F)F)c3)(C(F)(F)F)C2)ccc1C(=O)N[C@H]1CON(S(=O)(=O)N(C)C)C1 [Compound A186]
≥ 80%: percent effect (mortality or growth inhibition) at 200 ppm (Diabrotica balteata) | percent effect (mortality or growth inhibition) at 200 ppm (Euschistus heros) | mortality at 200 ppm (Myzus persicae; [1]) | percent effect (mortality or growth inhibition) at 200 ppm (Plutella xylostella) | mortality at 200 ppm (Spodoptera littoralis; [2]) | mortality at 200 ppm (Tetranychus urticae; [3]) | mortality at 200 ppm (Thrips tabaci; [4])

CC(C)(C)OC(=O)NS(=O)(=O)N1C[C@@H](NC(=O)c2ccc(C3=NO[C@@](c4cc(Cl)cc(Cl)c4)(C(F)(F)F)C3)cc2Cl)CO1 [Compound A151, tert-butyl N-[(4R)-4-[[2-chloro-4-[(5S)-5-(3,5-dichlorophenyl)-5-(trifluoromethyl)-4H-isoxazol-3-yl]benzoyl]amino]isoxazolidin-2-yl]sulfonylcarbamate]
≥ 80%: percent effect (mortality or growth inhibition) at 200 ppm (Diabrotica balteata) | percent effect (mortality or growth inhibition) at 200 ppm (Euschistus heros) | mortality at 200 ppm (Myzus persicae; [1]) | percent effect (mortality or growth inhibition) at 200 ppm (Plutella xylostella) | mortality at 200 ppm (Spodoptera littoralis; [2]) | mortality at 200 ppm (Tetranychus urticae; [3]) | mortality at 200 ppm (Thrips tabaci; [4])
